Results published in patent US20090004185A1, “AMINO-SUBSTITUTED QUINAZOLINE DERIVATIVES AS INHIBITORS OF BETA-CATENIN/TCF-4 PATHWAY AND CANCER TREATMENT AGENTS” (WYETH, priority 2007, published 2009).

Columns and labels:
[1] = system: SV40-Luc; assay: SV40-Luc control luciferase reporter assay, SV 5A8 cell line (SV40-Luc and SV40-R-Luc), control for non-specific inhibitors; assay type: cell-based, human; conditions: Homo sapiens, SV5A8, 24 h, SV 5A8 cells derived from SW480; 24 hours of incubation with compound; ratio Firefly/Renilla luciferase
Summary of the method: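 SW480 cells, stably integrated reporters; SV 5A8 = SV40-firefly + SV40-Renilla control line, Tcf 33.13/Tcf 22C11 = Tcf-4-firefly + SV40-Renilla. Cpd titration, 24 h, 0.316% DMSO final. Dual-Luc/Dual-Glo read; F/R ratio (% ctrl, duplicate plates) → IC50.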

[2] = system: β-catenin/Tcf-4; assay: cells; assay type: cell-based; conditions: Homo sapiens, 24 hours of incubation with compound, ratio Firefly/Renilla luciferase
Summary of the method: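 SW480-derived lines with integrated reporters (Tcf-4-driven firefly luciferase; SV40 firefly as specificity control; SV40 Renilla for cell number/toxicity), treated 24 hours with titrated compounds, final 0.316% DMSO. Dual-luciferase read-out; firefly/Renilla ratio as % of control, duplicate plates, IC50 (nM) from curve fit.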

[3] = SW480, 24 h, Tcf 33.13 cells derived from SW480
[4] = Tcf22C11, 24 h, Tcf 22C11 cells derived from SW480

Structure (SMILES) | IC50 [1] [nM] | melting point [°C] | IC50 [2, 3] [nM] | IC50 [2, 4] [nM]
C/C=C/c1ccc2c(NCc3ccc(NC(=O)C4CCN(Cc5ccccc5)CC4)cc3)nc(N(C)C)nc2c1 [Example 151, 1-benzyl-N-{4-[({2-(dimethylamino)-7-[(1E)-prop-1-en-1-yl]quinazolin-4-yl}amino)methyl]phenyl}-piperidine-4-carboxamide] | > 2530 | 154 | 726 | 606
CNc1nc(NCc2ccc(NC(=O)c3ccc(Br)cc3)cc2)c2ccc(C)cc2n1 [Example 238, 4-bromo-N-[4-({[7-methyl-2-(methylamino)quinazolin-4-yl]amino}methyl)phenyl]benzamide] | > 1310 | 295 to 298 | 255 | 284
Cc1ccc2c(NCc3ccc(NC(=O)c4ccc(F)cc4)cc3)nc(NC3CCN(Cc4ccccc4)CC3)nc2c1 [Example 233, N-{4-[({2-[(1-benzylpiperidin-4-yl)amino]-7-methylquinazolin-4-yl}amino)methyl]phenyl}-4-fluorobenzamide] | > 4350 | 135 to 138 | > 2180 | > 4350
CNc1nc(NCc2ccc(NC(=O)c3ccc(Cl)cc3)cc2)c2cc(Br)cc(C)c2n1 [Example 66, N-[4-({[6-bromo-8-methyl-2-(methylamino)quinazolin-4-yl]amino}methyl)phenyl]-4-chlorobenzamide] | > 9790 | 139 | 649 | 1010
CNc1nc(NCc2ccc(NC(=O)c3ccc(C)nc3)cc2)c2ccc(C)cc2n1 [Example 240, 6-methyl-N-[4-({[7-methyl-2-(methylamino)quinazolin-4-yl]amino}methyl)phenyl]nicotinamide] | > 3030 | 257 to 259 | 793 | 900
Cc1ccc2c(NCc3ccc(NC(=O)C4CCN(Cc5ccccc5)CC4)cc3)nc(N3CCCC3)nc2c1 [Example 133, 1-benzyl-N-(4-{[(7-methyl-2-pyrrolidin-1-ylquinazolin-4-yl)amino]methyl}phenyl)piperidine-4-carboxamide] | > 9350 | 96 | 793 | 669
CNc1nc(NCc2ccc(NC(=O)c3ccc(Cl)nc3)cc2)c2c(C)cccc2n1 [Example 194, 6-chloro-N-[4-({[5-methyl-2-(methylamino)quinazolin-4-yl]amino}methyl)phenyl]nicotinamide] | > 5780 | 233 to 236 | – | –
Cc1ccc2c(NCc3ccc(NC(=O)C4CCN(Cc5ccc(C(F)(F)F)cc5)CC4)cc3)nc(N(C)C)nc2c1 [Example 256, N-[4-({[2-(dimethylamino)-7-methylquinazolin-4-yl]amino}methyl)phenyl]-1-[4-(trifluoromethyl)benzyl]piperidine-4-carboxamide] | > 8670 | 126 to 128 | 706 | 967
CNc1nc(NCc2ccc(NC(=O)c3ccc(Cl)cc3)cc2)c2ccc(C)cc2n1 [Example 195, 4-chloro-N-[4-({[7-methyl-2-(methylamino)quinazolin-4-yl]amino}methyl)phenyl]benzamide] | > 1160 | 264 to 266 | – | –
O=C(Nc1ccc(CNc2nc(N3CCC3)nc3ccccc23)cc1)c1ccc(F)cc1 [Example 114, N-(4-{[(2-azetidin-1-ylquinazolin-4-yl)amino]methyl}phenyl)-4-fluorobenzamide] | > 5850 | 249 | 587 | 870
O=C(Nc1ccc(CNc2nc(NC3CC3)nc3ccccc23)cc1)c1ccc(F)cc1 [Example 121, N-[4-({[2-(cyclopropylamino)quinazolin-4-yl]amino}methyl)phenyl]-4-fluorobenzamide] | > 2920 | 189 | 1140 | 1720
Cc1ccc2c(NCc3ccc(NC(=O)c4ccc(Cl)cc4)cc3)nc(N3CCCCCC3)nc2c1 [Example 198, N-(4-{[(2-azepan-1-yl-7-methylquinazolin-4-yl)amino]methyl}phenyl)-4-chlorobenzamide] | > 2500 | 192 to 194 | 253 | 346
Cc1ccc2c(NCc3ccc(NC(=O)c4ccc(F)cc4)cc3)nc(N3CCCCCC3)nc2c1 [Example 235, N-(4-{[(2-azepan-1-yl-7-methylquinazolin-4-yl)amino]methyl}phenyl)-4-fluorobenzamide] | > 5170 | 135 to 139 | 448 | 451
Cc1ccc2c(NCc3ccc(NC(=O)c4ccc(F)cc4)cc3)nc(NCCc3ccccn3)nc2c1 [Example 232, 4-fluoro-N-{4-[({7-methyl-2-[(2-pyridin-2-ylethyl)amino]quinazolin-4-yl}amino)methyl]phenyl}benzamide] | > 2470 | 112 to 115 | 292 | 408
CC(=O)c1ccc2c(NCc3ccc(NC(=O)c4ccc(F)cc4)cc3)nc(N(C)C)nc2c1 [Example 94, N-[4-({[7-acetyl-2-(dimethylamino)quinazolin-4-yl]amino}methyl)phenyl]-4-fluorobenzamide] | > 20200 | 195 | – | –
CCCNc1nc(NCc2ccc(NC(=O)c3ccc(F)cc3)cc2)c2ccc(C)cc2n1 [Example 231, 4-fluoro-N-[4-({[7-methyl-2-(propylamino)quinazolin-4-yl]amino}methyl)phenyl]benzamide] | > 2820 | 170 to 174 | – | –
Cc1ccc2c(NCc3ccc(NC(=O)C4CCN(Cc5ccc(F)c(F)c5)CC4)cc3)nc(N(C)C)nc2c1 [Example 255, 1-(3,4-difluorobenzyl)-N-[4-({[2-(dimethylamino)-7-methylquinazolin-4-yl]amino}methyl)phenyl]piperidine-4-carboxamide] | > 2300 | 97 to 99 | 106 | 196
Cc1ccc2c(NCc3ccc(NC(=O)c4ccc(F)cc4)cc3)nc(N3CCN[C@@H](C)C3)nc2c1 [Example 234, 4-fluoro-N-{4-[({7-methyl-2-[(3S)-3-methylpiperazin-1-yl]quinazolin-4-yl}amino)methyl]phenyl}benzamide] | > 6780 | 200 to 202 | – | –
CC(C)(C)OC(=O)CNc1nc(NCc2ccc(NC(=O)c3ccc(F)cc3)cc2)c2ccccc2n1 [Example 126, tert-butyl N-[4-({4-[(4-fluorobenzoyl)amino]benzyl}amino)quinazolin-2-yl]glycinate] | > 2490 | 96 | 1070 | 1720
CNc1nc(NCc2ccc(NC(=O)c3ccc(Cl)nc3)cc2)c2cc([N+](=O)[O-])ccc2n1 [Example 184, 6-chloro-N-[4-({[2-(methylamino)-6-nitroquinazolin-4-yl]amino}methyl)phenyl]nicotinamide] | > 21600 | 305 to 307 | > 21600 | > 21600
C=Cc1ccc2c(NCc3ccc(NC(=O)C4CCN(Cc5ccccc5)CC4)cc3)nc(N(C)C)nc2c1 [Example 150, 1-benzyl-N-[4-({[2-(dimethylamino)-7-vinylquinazolin-4-yl]amino}methyl)phenyl]piperidine-4-carboxamide] | > 2400 | 180 | 169 | 268
